± gives the expanded uncertainty stated by the source.
Conditions: Liquid; for mass density: 298.15 K, 101.33 kPa

CC(C)CC(C)(C)C [2,2,4-trimethylpentane]
mass density: 687.72 ± 0.9 kg/m3
vapor or sublimation pressure (370.45 K): 95.96 ± 0.59 kPa
vapor or sublimation pressure (372.45 K): 101.3 ± 0.6 kPa

COC(C)(C)C [2-methoxy-2-methylpropane]
mass density: 735.4 ± 0.97 kg/m3
vapor or sublimation pressure (326.55 K): 95.96 ± 0.64 kPa
vapor or sublimation pressure (328.35 K): 101.3 ± 0.6 kPa

CC(C)OC(C)C [diisopropyl ether]
mass density: 718.14 ± 0.95 kg/m3
vapor or sublimation pressure (339.95 K): 95.96 ± 0.8 kPa
vapor or sublimation pressure (341.35 K): 101.3 ± 0.8 kPa

COCOC [dimethoxymethane]
mass density: 847.51 ± 1.1 kg/m3
vapor or sublimation pressure (313.75 K): 95.96 ± 0.75 kPa
vapor or sublimation pressure (315.25 K): 101.3 ± 0.8 kPa
